According to patent US20210195900A1, “FUNGICIDAL MIXTURES FOR SOYBEAN DISEASES” (priority 2018, published 2021):

Legend:
[1] = tested on: soybeans; assay: Soybean seed treatment field trial, grain yield (multi-year, multi-location); format: in vivo; settings: control 60.4
Protocol: (§1) Soybean seeds treated with penthiopyrad, fluopyram, a combination thereof, at indicated application rates, along with appropriate controls were grown in multiple field locations under a variety of pest pressures including sudden death syndrome (SDS).
(§2) For those evaluations shown herein, the Treatment value is greater than or less than CONTROL, and statistically significant at (P-value <0.10).

[2] = tested on: Fusarium virguliforme (SDS); assay: Soybean seed treatment field trial, SDS score at stage R6; format: in vivo; settings: 9 = no disease, control 6.1
Protocol: as §1
Level of tolerance to Fusarium virguliforme (SDS) in soybean varieties based on SDS score was measured in multiple locations across multiple years. SDS score was determined at or during the soybean developmental stage R6.
Scale for assigning tolerance to SDS scores:
Scale 9=clean, no disease
Scale 8=Up to 10% of plants showing mild symptoms (yellow, chlorotic spots)
Scale 7=Up to 20% plants showing mild symptoms
Scale 6=up to 30% plants showing medium symptoms (necrotic spots develop in the chlorotic areas; considered the lowest ‘acceptable’ score)
Scale 5=40% or more of plants showing medium symptoms
Scale 4=50% or more plants showing medium to heavy symptoms
3, 2, or 1=1/3, 2/3, or complete leaf drop, respectively.
as §2

| SMILES | Multi-year, Multi-loc Yield ([1]; penthiopyrad 0.25 mg ai/seed) | SDS Score (1-9) ([2]; penthiopyrad 0.25 mg ai/seed) | Multi-year, Multi-loc Yield ([1]; fluopyram 0.075 mg ai/seed) | Multi-year, Multi-loc Yield ([1]; fluopyram 0.15 mg ai/seed) | SDS Score (1-9) ([2]; fluopyram 0.075 mg ai/seed) | SDS Score (1-9) ([2]; fluopyram 0.15 mg ai/seed) |
| --- | --- | --- | --- | --- | --- | --- |
| CC(C)CC(C)c1sccc1NC(=O)c1cn(C)nc1C(F)(F)F (stereo not drawn) [Penthiopyrad, N-[2-(1,3-dimethylbutyl)-3-thienyl]-1-methyl-3-(trifluoromethyl)-1H-pyrazole-4-carboxamide] | 62.6 bu/acre | 6.7 |  |  |  |  |
| O=C(NCCc1ncc(C(F)(F)F)cc1Cl)c1ccccc1C(F)(F)F [Fluopyram, N-{2-[3-Chloro-5-(trifluoromethyl)-2-pyridinyl]ethyl}-2-(trifluoromethyl)benzamide] |  |  | 62.2 bu/acre | 62.5 bu/acre | 6.8 | 7.2 |
